Laboratory results as given in the supplement of paper PMC7695840.
“And” between values parts separate entries of the source, which are not always exact repeats. Equal values may be shown once. Where a name gives a salt, the structure may show the parent alone.

Key:
[1] = system: Staphylococcus aureus MW2 delta-mecA (mecA-); test: IC50 (growth, competition assay); conditions: cefoxitin: subinhibitory
How it was run: (§1)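 Per plate, DsRed (540/590) and GFP (485/520) readings were normalized between the medians of the single-strain controls, after which No Treatment was fixed at 0.5. These readings came from a 1:1 mix of pre-induced fluorescent S. aureus MW2 strains with and without the resistance gene, grown for 20 h at 37 °C and 90% humidity, unshaken, in LB with a daily-set subinhibitory drug dose in 1536-well plates. Per-strain IC50 meant the dose halving the No Treatment signal, or the maximal signal.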

[2] = system: Staphylococcus aureus MW2 (mecA+); test: IC50 (growth, competition assay); conditions: cefoxitin: subinhibitory
How it was run: as §1

Row | Structure (SMILES) | IC50 ([1]; fluorescent label: DsRed) [µM] | IC50 ([1]; fluorescent label: GFP) [µM] | IC50 ([2]; fluorescent label: DsRed) | IC50 ([2]; fluorescent label: GFP)
1 | CCN1CCN(C(=O)N[C@@H](C(=O)N[C@@H]2C(=O)N3C(C(=O)O)=C(CSc4nnnn4C)CS[C@H]23)c2ccc(O)cc2)C(=O)C1=O [CEFOBID] | < 9.85 | < 9.85 | 19.5 µM | 24.5 µM
2 | O=c1cc(O)cc(/C=C/c2ccc(O)c(O)c2)o1 [Hispidin] | 50.9 | 59.1 | 58.9 µM | 54.8 µM
3 | COC(=O)c1c(C)c2c(c(C)c1O)OC(=O)c1c(C)c(Cl)c(O)c(Cl)c1O2 [LEOIDIN] | < 9.85 | < 9.85 | < 9.85 µM | < 9.85 µM
4 | CCc1cc2c(cc1CC)CC(NC[C@H](O)c1ccc(O)c3[nH]c(=O)ccc13)C2 [Indacaterol Maleate] | 53.8 | 32.2 | 71.1 µM | 91.4 µM
5 | CN[C@H](CC(C)C)C(=O)N[C@H]1C(=O)N[C@@H](CC(N)=O)C(=O)N[C@H]2C(=O)N[C@H]3C(=O)N[C@H](C(=O)N[C@H](C(=O)O)c4cc(O)cc(O)c4-c4cc3ccc4O)[C@H](O)c3ccc(c(Cl)c3)Oc3cc2cc(c3O[C@@H]2O[C@H](CO)[C@@H](O)[C@H](O)[C@H]2O[C@H]2C[C@](C)(N)[C@H](O)[C@H](C)O2)Oc2ccc(cc2Cl)[C@H]1O [Vancomycin HCl (Vancocin)] | < 9.85 | < 9.85 | < 9.85 µM | < 9.85 µM
6 | C[C@H]1COC2=C1C(=O)C(=O)c1c2ccc2c1CCCC2(C)C [Cryptotanshinone] | < 9.85 | < 9.85 | 12.1 µM | 19.2 µM
7 | CC(=O)Oc1cc2c(c(C)c1OC(C)=O)CC=C1[C@@]2(C)CC[C@@]2(C)C3C[C@](C)(C(=O)O)CC[C@]3(C)CC[C@]12C (some centres undefined) [DIHYDROCELASTRYL DIACETATE] | < 9.85 | < 9.85 | < 9.85 µM | < 9.85 µM
8 | O=C1OCCN1/N=C/c1ccc([N+](=O)[O-])o1 [FUROXONE] | < 9.85 | < 9.85 | < 9.85 µM | < 9.85 µM
9 | CCC(=O)O[C@H]1[C@H](O[C@@H]2[C@@H](C)[C@H](O[C@H]3C[C@@](C)(OC)[C@@H](O)[C@H](C)O3)[C@@H](C)C(=O)O[C@H](CC)[C@@](C)(O)[C@H](O)[C@@H](C)C(=O)[C@H](C)C[C@@]2(C)O)O[C@H](C)C[C@@H]1N(C)C [ILOSONE] | < 9.85 | < 9.85 | < 9.85 µM | 17 µM
10 | COC(=O)C1=C(C)NC(C)=C(C(=O)OCC(C)C)C1c1ccccc1[N+](=O)[O-] (centres undefined) [Nisoldipine] | 12.7 | 7.55 | 63.1 µM | 99.2 µM
11 | COc1cc([C@@H]2c3cc4c(cc3[C@@H](O[C@@H]3O[C@@H]5CO[C@@H](c6cccs6)O[C@H]5[C@H](O)[C@H]3O)[C@H]3COC(=O)[C@H]23)OCO4)cc(OC)c1O [VUMON] | < 9.85 | < 9.85 | < 9.85 µM | < 9.85 µM
12 | COc1ccc2c(c[n+](C)c3c4cc5c(cc4ccc23)OCO5)c1OC [Chelerythrine chloride] | 15 | < 9.85 | 36.7 µM | 49.2 µM
13 | CC(C)(Oc1ccc(C2CC2(Cl)Cl)cc1)C(=O)O (centres undefined) [Ciprofibrate] | 21.6 | 30.6 | 93.1 µM | 107 µM
14 | CO/N=C(\C(=O)N[C@@H]1C(=O)N2C(C(=O)O)=C(COC(C)=O)CS[C@H]12)c1csc(N)n1 [Cefotaxime sodium] | < 9.85 | < 9.85 | < 9.85 µM | < 9.85 µM
15 | O=[N+]([O-])c1ccc(O)c2ncccc12 [ENTEROCOL] | 38.4 | < 9.85 | 16.2 µM | 54.4 µM
16 | CC(C)N(CCC(=O)c1ccc2ccccc2c1)Cc1ccccc1 | < 9.85 | < 9.85 | < 9.85 µM and 16.8 µM | 14.1 µM and 22.4 µM
17 | O=C1C(Cl)=C(Cl)C(=O)C(Cl)=C1Cl [CHLORANIL] | 16 | 17.3 | 67.1 µM | 83.8 µM
18 | CC(=O)NC[C@H]1CN(c2ccc(N3CCOCC3)c(F)c2)C(=O)O1 [Linezolid (Zyvox)] | 0.992 | < 0.498 | 2.31 µM | 2.83 µM
19 | CC[C@H](C)[C@H](N)C1=N[C@H](C(=O)N[C@@H](CC(C)C)C(=O)N[C@H](CCC(=O)[O-])C(=O)N[C@H](C(=O)N[C@H]2CCCCNC(=O)[C@H](CC(N)=O)NC(=O)[C@@H](CC(=O)[O-])NC(=O)[C@H](Cc3cnc[nH]3)NC(=O)[C@@H](Cc3ccccc3)NC(=O)[C@H]([C@@H](C)CC)NC(=O)[C@@H](CCCN)NC2=O)[C@@H](C)CC)CS1.[Zn+2] [Bacitracin zinc] | 4.32 | 4.06 | 35.2 µM | 49.1 µM
20 | COc1ccc(NS(=O)(=O)c2sc3ccc(Cl)cc3c2C)cc1N1CCNCC1 | 22.7 | 16.5 | 102 µM | 108 µM
21 | C=CCc1ccccc1OCC(O)CNC1(C)CCC(C(C)(C)NC(=O)CBr)CC1 (centres undefined) [Bromoacetyl alprenolol menthane] | < 9.85 | < 9.85 | 14.8 µM | 14.2 µM
22 | C[C@H](Oc1cc(-c2cnn(C3CCNCC3)c2)cnc1N)c1c(Cl)ccc(F)c1Cl [(S)-crizotinib] | < 9.85 | < 9.85 | 75 µM | 101 µM
23 | CC(=O)NC[C@H]1CN(c2ccc(N3CCOCC3)c(F)c2)C(=O)O1 [ZYVOX] | < 9.85 | < 9.85 | < 9.85 µM | < 9.85 µM
24 | COc1cc(NS(C)(=O)=O)ccc1Nc1c2ccccc2nc2ccccc12 [AMSIDYL] | < 9.85 | < 9.85 | 74.3 µM | 76.1 µM
25 | N[C@@H](Cc1cc(I)c(Oc2cc(I)c(O)c(I)c2)c(I)c1)C(=O)O [L-Thyroxine] | < 9.85 | < 9.85 | < 9.85 µM | < 9.85 µM
26 | CC[C@H]1OC(=O)[C@H](C)[C@@H](O[C@H]2C[C@@](C)(OC)[C@@H](O)[C@H](C)O2)[C@H](C)[C@@H](O[C@@H]2O[C@H](C)C[C@H](N(C)C)[C@H]2O)[C@](C)(OC)C[C@@H](C)C(=O)[C@H](C)[C@@H](O)[C@]1(C)O [BIAXIN] | < 9.85 | < 9.85 | < 9.85 µM | < 9.85 µM
